4 molecules from ChEMBL document CHEMBL1137930, “Critical structural motif for the catalytic inhibition of human topoisomerase II by UK-1 and analogs” (Bioorg Med Chem Lett, 2004) can be followed below.

In experiment [1] the test system is P388. Put plainly: Inhibitory activity of compound against P388 murine cell line; range is 0.3 uM-1.6 uM. The experiment is classed as functional, cell-based. The settings on record: Mus musculus.
The test system of experiment [2] is HL-60. Description: Cytotoxicity of compound against HL60 cell line. It is filed as functional, cell-based. The settings on record: Homo sapiens.
Experiment [3] has as its target T1, DNA topoisomerase 2-alpha (Homo sapiens, UniProt P11388). Put plainly: Inhibitory concentration against human DNA topoisomerase II, alpha mediated relaxation of pBR322.
In experiment [4] the test system is PC-3. Put plainly: Cytotoxicity of compound against PC-3 cell line. The experiment is classed as functional, cell-based. The settings on record: Homo sapiens.
Experiment [5] concerns the target T1, DNA topoisomerase 2-alpha. Description: Inhibitory activity of compound against human DNA topoisomerase II, alpha was evaluated by ability to interfere with the relaxation of supercoiled plasmid DNA.
Experiment [6] has as its target T1, DNA topoisomerase 2-alpha. Put plainly: Inhibitory concentration against human DNA topoisomerase II, alpha mediated relaxation of pBR322; no measurable activity.

T1 sequence (P11388 whole entry): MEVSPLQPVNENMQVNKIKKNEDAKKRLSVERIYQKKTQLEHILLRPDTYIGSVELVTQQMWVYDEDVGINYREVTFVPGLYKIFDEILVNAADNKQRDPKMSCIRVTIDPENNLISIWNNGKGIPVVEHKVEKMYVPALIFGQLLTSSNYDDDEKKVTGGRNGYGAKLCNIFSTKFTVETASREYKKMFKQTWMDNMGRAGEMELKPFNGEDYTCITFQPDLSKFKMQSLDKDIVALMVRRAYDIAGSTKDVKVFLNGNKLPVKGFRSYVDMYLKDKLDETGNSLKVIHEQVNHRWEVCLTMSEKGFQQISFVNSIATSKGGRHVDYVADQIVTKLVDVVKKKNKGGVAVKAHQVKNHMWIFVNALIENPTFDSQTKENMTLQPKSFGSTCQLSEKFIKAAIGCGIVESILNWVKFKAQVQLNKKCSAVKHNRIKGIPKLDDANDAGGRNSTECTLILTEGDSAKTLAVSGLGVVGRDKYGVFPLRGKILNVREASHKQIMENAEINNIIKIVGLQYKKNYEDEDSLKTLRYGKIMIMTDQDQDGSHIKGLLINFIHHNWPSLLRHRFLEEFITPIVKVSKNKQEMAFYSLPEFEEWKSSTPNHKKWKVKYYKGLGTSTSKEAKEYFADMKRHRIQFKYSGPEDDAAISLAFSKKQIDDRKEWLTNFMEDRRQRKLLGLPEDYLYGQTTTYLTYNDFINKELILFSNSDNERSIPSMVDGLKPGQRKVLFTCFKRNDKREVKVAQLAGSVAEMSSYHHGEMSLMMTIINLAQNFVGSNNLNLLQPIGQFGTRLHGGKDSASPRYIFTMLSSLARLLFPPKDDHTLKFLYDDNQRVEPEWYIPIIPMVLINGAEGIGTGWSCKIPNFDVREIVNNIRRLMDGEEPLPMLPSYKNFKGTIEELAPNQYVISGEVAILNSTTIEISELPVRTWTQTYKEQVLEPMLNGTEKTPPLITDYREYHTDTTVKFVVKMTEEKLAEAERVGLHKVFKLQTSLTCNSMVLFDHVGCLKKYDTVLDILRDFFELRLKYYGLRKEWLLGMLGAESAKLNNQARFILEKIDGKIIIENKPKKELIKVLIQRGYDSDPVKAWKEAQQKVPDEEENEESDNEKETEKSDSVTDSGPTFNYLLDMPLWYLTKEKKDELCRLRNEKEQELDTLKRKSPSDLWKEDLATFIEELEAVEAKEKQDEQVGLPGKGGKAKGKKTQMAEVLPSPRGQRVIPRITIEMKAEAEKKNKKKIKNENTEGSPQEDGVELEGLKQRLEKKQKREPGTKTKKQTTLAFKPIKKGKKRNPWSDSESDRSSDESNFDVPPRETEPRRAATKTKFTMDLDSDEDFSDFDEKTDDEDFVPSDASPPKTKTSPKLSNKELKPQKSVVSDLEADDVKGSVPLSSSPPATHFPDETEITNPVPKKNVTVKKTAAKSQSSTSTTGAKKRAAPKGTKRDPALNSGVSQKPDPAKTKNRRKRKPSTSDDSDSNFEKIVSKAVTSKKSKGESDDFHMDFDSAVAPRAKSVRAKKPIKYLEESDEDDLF

Regarding `COC(=O)c1cccc2oc(-c3cccc4oc(-c5ccccc5O)nc34)nc12`, the IC50 – broadly, the point on the concentration scale where inhibition reaches its midpoint – in experiment [1] was 0.3 µM; in experiment [2], 0.32 µM; in experiment [3] it was 50 µM; in experiment [4], 0.4 µM; in experiment [5], 32 µM.

With `c1ccc(-c2nc3c(-c4nc5ccccc5o4)cccc3o2)cc1`, the IC50 in experiment [6] is more than 100 µM.

Take `Oc1ccccc1-c1nc2c(-c3nc4ccccc4o3)cccc2o1`: the IC50 in experiment [3] and in experiment [5] was 20 µM each time.

For the molecule `COC(=O)c1cccc2oc(-c3cccc4oc(-c5ccccc5)nc34)nc12`, the IC50 in experiment [3] was determined as 38 µM.
